Data published in patent US11166920B2, “Microfluidics device for fabrication of large, uniform, injectable hydrogel microparticles for cell encapsulation” (Auburn University, priority 2017, dated 2021).
“Also recorded” adds a separate entry of the source.

System: microsphere CMs
Assay: Multielectrode array: drug response and exogenous pacing
Type: cell-based, human
Conditions: day 20 microsphere CMs; isoproterenol 1 μM, then propranolol 1 μM
Description: Day 20 and 50 dissociated microsphere CMs were seeded onto a fibronectin coated S2 type MEA200/30-Ti-gr (Multichannel Systems) and cultured for at least 24 h. Adhering microsphere CMs were perfused with Tyrode's solution, composed of 1.8 mM CaCl2), 5 mM glucose, 5 mM HEPES, 1 mM MgCl2, 5.4 mM KCl, 135 mM NaCl, and 0.33 mM NaH2PO4 at pH 7.4 and 37° C. Once stabilized, field potentials of spontaneous contractions were recorded at a sampling frequency of 10 kHz. Drug response of day 20 microsphere CMs was tested by adding the β-adrenergic agonist isoproterenol (1 μM) and antagonist propranolol (1 μM). Day 50 microsphere CMs were exogenously paced from 0.5-6.0 Hz.

Row | Structure (SMILES) | Effect on contraction rate
1 | CC(C)NCC(O)c1ccc(O)c(O)c1 (centres unmarked) [isoproterenol] | increases the frequency of contraction; also recorded: increasing the contraction rate
2 | CC(C)NCC(O)COc1cccc2ccccc12 (centres unmarked) [propranolol] | slowed down the rate of contraction; also recorded: reversed the initial increase in contraction rate
